Tests used:
BCL2A1/BID = biological target: T1, BCL2A1/BID (Homo sapiens, UniProt Q16548); assay: Inhibition of BFL-1/ BH3 (unknown origin) interaction incubated for 2 hrs by TR-FRET assay; type: protein assay
T1 sequence (Q16548 whole entry): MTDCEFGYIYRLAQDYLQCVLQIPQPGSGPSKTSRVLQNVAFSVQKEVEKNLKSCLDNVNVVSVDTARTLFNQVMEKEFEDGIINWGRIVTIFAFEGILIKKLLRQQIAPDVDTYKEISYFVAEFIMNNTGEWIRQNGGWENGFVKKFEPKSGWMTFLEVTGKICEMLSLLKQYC
T1 sequence (P55957 whole entry): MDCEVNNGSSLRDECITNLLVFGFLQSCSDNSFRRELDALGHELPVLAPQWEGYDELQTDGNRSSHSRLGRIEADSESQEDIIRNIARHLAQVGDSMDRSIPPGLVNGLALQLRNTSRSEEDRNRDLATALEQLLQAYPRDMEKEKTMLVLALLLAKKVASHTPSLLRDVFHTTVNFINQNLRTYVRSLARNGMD

SU-DHL-1 [1] = assay: Induction of apoptosis in human SU-DHL-1 cells assessed as caspase activation in presence of AZD5991 incubated for 6 hrs by caspaseGlo 3/7 reagent based assay; type: functional, cell-based; conditions: SU-DHL-1, 6 h
[2] = biological target: Induced myeloid leukemia cell differentiation protein Mcl-1 (Homo sapiens, UniProt Q07820); assay: Inhibition of MCL1 (unknown origin) by FRET assay
[3] = Metabolic stability in human hepatocytes assessed as intrinsic clearance measured per 10^6 cells; type: ADME, cell-based, Hepatocyte; conditions: read-out: CLH
[4] = Metabolic stability in rat hepatocytes assessed as intrinsic clearance measured per 10^6 cells; type: ADME, cell-based, Hepatocyte
[5] = biological target: Apoptosis regulator Bcl-2 (Homo sapiens, UniProt P10415); assay: Inhibition of BCL2 (unknown origin) by FRET assay
Bcl-2-like protein 1 = Bcl-2-like protein 1 (Homo sapiens, UniProt Q07817); assay: Inhibition of Bcl-Xl (unknown origin) by FRET assay
[6] = Lipophilicity, log D of compound in 1-octanol at pH 7.4 incubated for 4 hrs by HPLC-UV analysis; type: physicochemical; conditions: 1-octanol / aqueous phase at pH 7.4, pH 7.4
[7] = Metabolic stability in mouse hepatocytes assessed as intrinsic clearance measured per 10^6 cells; type: ADME, cell-based, Hepatocyte; conditions: read-out: CLH
SU-DHL-1 [8] = assay: Antiproliferative activity against human SU-DHL-1 cells assessed as cell viability incubated for 24 hrs by celltiter-glo assay; type: functional, cell-based; conditions: SU-DHL-1, 24 h
[9] = GSH reactivity in PBS buffer at pH 7.4 assessed as half life by LC-UV/MS analysis; type: physicochemical
[10] = Metabolic stability in human liver microsome assessed as intrinsic clearance; type: ADME; conditions: human liver microsomes, read-out: CLH
[11] = Plasma protein binding in mouse assessed as unbound fraction; type: ADME, cell-free
[12] = Volume of distribution at steady state in CD-1 mouse at 1 mg/kg, po or 0.5 mg/kg, iv measured upto 24 hrs by LC-MS/MS analysis; type: ADME, organism-based; conditions: in vivo
[13] = Half life in CD-1 mouse at 1 mg/kg, po or 0.5 mg/kg, iv measured upto 24 hrs by LC-MS/MS analysis; type: ADME, organism-based; conditions: in vivo
[14] = Apparent permeability across apical to basolateral side in human Caco-2 cells measured upto 120 mins by LC-MS/MS analysis; type: ADME, cell-based

Sequence of Induced myeloid leukemia cell differentiation protein Mcl-1 (Q07820 whole entry): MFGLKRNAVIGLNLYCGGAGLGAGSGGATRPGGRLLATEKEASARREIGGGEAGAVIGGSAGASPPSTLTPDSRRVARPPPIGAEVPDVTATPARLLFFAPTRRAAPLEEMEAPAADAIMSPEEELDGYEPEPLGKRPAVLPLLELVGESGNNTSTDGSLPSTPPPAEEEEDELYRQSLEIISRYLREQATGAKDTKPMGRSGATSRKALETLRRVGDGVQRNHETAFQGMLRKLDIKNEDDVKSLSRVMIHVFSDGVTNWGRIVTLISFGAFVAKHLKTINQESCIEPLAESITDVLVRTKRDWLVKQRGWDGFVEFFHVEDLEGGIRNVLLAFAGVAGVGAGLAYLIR
Sequence of Bcl-2-like protein 1 (Q07817 whole entry): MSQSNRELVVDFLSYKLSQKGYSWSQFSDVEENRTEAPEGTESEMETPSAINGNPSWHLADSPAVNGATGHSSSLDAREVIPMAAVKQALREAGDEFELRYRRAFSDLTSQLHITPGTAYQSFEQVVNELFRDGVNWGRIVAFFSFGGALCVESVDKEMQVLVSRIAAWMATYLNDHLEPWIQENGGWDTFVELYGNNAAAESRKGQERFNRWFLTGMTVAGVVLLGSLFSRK
Sequence of Apoptosis regulator Bcl-2 (P10415 whole entry): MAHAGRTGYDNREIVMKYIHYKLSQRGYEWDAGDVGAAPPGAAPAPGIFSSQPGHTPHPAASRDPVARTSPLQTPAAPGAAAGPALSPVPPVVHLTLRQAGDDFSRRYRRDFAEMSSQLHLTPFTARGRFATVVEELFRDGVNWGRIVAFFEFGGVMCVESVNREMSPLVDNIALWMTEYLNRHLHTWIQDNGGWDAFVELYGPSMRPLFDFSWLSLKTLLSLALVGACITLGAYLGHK

| Compound | IC50 (BCL2A1/BID) | EC50 (SU-DHL-1 [1]) | also measured |
| --- | --- | --- | --- |
| C[C@@H](c1ccc(Cl)cc1)N(C(=O)/C=C/CN(C)C)c1ccc(O[C@@H]2CC[C@@H](N)C2)cc1 | 90 nM |  |  |
| C=CC(=O)N(c1ccc(O[C@@H]2CC[C@@H](N)C2)c(C)c1)[C@@H](C)c1ccc(Cl)cc1 | 77 nM | 650 nM |  |
| C=CC(=O)N(c1ccc(O[C@@H]2CC[C@@H](NC(=O)CCCN(C)C)C2)cc1)[C@@H](C)c1ccc(Cl)cc1 | 74 nM | 610 nM |  |
| C=CC(=O)N(c1ccc(O[C@@H]2CC[C@@H](N)C2)cc1)[C@@H](CC(N)=O)c1ccc(Cl)cc1 | 43 nM | 490 nM | IC50 [2]: > 100000 nM |
| C[C@@H](c1ccc(Cl)cc1)N(C(=O)/C=C/CN(C)C)c1ccc(O[C@@H]2CC[C@@H](NC(=O)N[C@@H]3CCS(=O)(=O)C3)C2)c(F)c1 | 8.5 nM | 52 nM | hepatocyte CLint [3]: 1.5 µL/min/1e6 cells; hepatocyte CLint ([4]; rat hepatocytes, read-out: CLH): 28 µL/min/1e6 cells; IC50 [5]: > 30000 nM; IC50 (Bcl-2-like protein 1): > 30000 nM; logD at 4 h [6]: 2.5; hepatocyte CLint [7]: 17 µL/min/1e6 cells; EC50 (SU-DHL-1 [8]): 110 nM |
| CNS(=O)(=O)OCC(=O)N(Cc1ccc(Cl)cc1)c1ccc(O[C@@H]2CC[C@@H](N)C2)cc1 | 6500 nM |  |  |
| C=CC(=O)N(c1ccc(O[C@@H]2CC[C@@H](NC(=O)N[C@@H]3CCS(=O)(=O)C3)C2)c(F)c1)[C@@H](CC(C)(C)O)c1ccc(Cl)cc1 | 4.2 nM | 19 nM | hepatocyte CLint [3]: 5.3 µL/min/1e6 cells; hepatocyte CLint ([4]; rat hepatocytes, read-out: CLH): 52 µL/min/1e6 cells; logD at 4 h [6]: 3.1; hepatocyte CLint [7]: 49 µL/min/1e6 cells; EC50 (SU-DHL-1 [8]): 49 nM |
| C=CC(=O)N(c1ccc(O[C@@H]2CC[C@@H](N)C2)cc1OC)[C@@H](C)c1ccc(Cl)cc1 | 880 nM | 2400 nM |  |
| C=CC(=O)N(c1cc(F)c(O[C@@H]2CC[C@@H](N)C2)cc1C)[C@@H](C)c1ccc(Cl)cc1 | 31 nM | 530 nM | half-life [9]: 4.47 h; hepatocyte CLint ([4]; hepatocytes): 12 µL/min/1e6 cells; logD at 4 h [6]: 2.7; microsomal CLint [10]: 9.4 µL/min/mg |
| C=CC(=O)N(c1ccc(O[C@@H]2CC[C@@H](N)C2)cc1)[C@@H](C[C@H](C)O)c1ccc(Cl)cc1 | 18 nM | 140 nM | EC50 (SU-DHL-1 [8]): 170 nM |
| C=CC(=O)N(c1ccc(O[C@@H]2CC[C@@H](N)C2)c(C#N)c1)[C@@H](C)c1ccc(Cl)cc1 | 14 nM | 120 nM |  |
| C=CC(=O)N(c1ccc(O[C@@H]2CC[C@@H](N)C2)cc1)[C@@H](CC(C)(C)O)c1ccc(Cl)cc1 | 33 nM | 520 nM | IC50 [2]: > 100000 nM |
| C=CC(=O)N(c1ccc(O[C@@H]2CC[C@@H](NC(=O)N[C@@H]3CCS(=O)(=O)C3)C2)c(F)c1)[C@@H](C)c1ccc(C(F)(F)F)c(C#N)c1 | 87 nM | 910 nM | hepatocyte CLint ([4]; rat hepatocytes, read-out: CLH): 262 µL/min/1e6 cells; logD at 4 h [6]: 3.2 |
| C=CC(=O)N(c1ccc(O[C@@H]2CC[C@@H](NC(=O)N[C@@H]3CCS(=O)(=O)C3)C2)c(F)c1)[C@@H](CC(N)=O)c1ccc(Cl)cc1 | 5 nM | 79 nM | hepatocyte CLint [3]: 25 µL/min/1e6 cells; hepatocyte CLint ([4]; rat hepatocytes, read-out: CLH): 74 µL/min/1e6 cells; logD at 4 h [6]: 2.2; hepatocyte CLint [7]: 45 µL/min/1e6 cells |
| C=CC(=O)N(c1ccc(O[C@@H]2CC[C@@H](N)C2)c(Cl)c1)[C@@H](C)c1ccc(Cl)cc1 | 24 nM | 120 nM |  |
| C=CC(=O)N(c1ccc(O[C@@H]2CC[C@@H](N)C2)cc1)[C@@H](CNS(C)(=O)=O)c1ccc(Cl)cc1 | 31 nM | 350 nM | IC50 [2]: > 100000 nM |
| C=CC(=O)N(c1ccc(O[C@@H]2CC[C@@H](N)C2)cc1)[C@H](CNS(C)(=O)=O)c1ccc(Cl)cc1 | 2800 nM | > 10000 nM |  |

| Compound | IC50 (BCL2A1/BID) | EC50 (SU-DHL-1 [1]) | also measured |
| --- | --- | --- | --- |
| C=CC(=O)N(c1ccc(O[C@@H]2CC[C@@H](NC(=O)N[C@H]3CCNC3)C2)cc1)[C@@H](C)c1ccc(Cl)cc1 | 29 nM | 3100 nM | IC50 [2]: > 100000 nM |
| C=CC(=O)N(c1ccc(O[C@@H]2CC[C@@H](NC(=O)NCC(C)(C)N(C)C)C2)c(F)c1)[C@@H](C)c1ccc(Cl)cc1 | 3.9 nM | 30 nM | hepatocyte CLint [3]: 6.1 µL/min/1e6 cells; hepatocyte CLint ([4]; rat hepatocytes, read-out: CLH): 14 µL/min/1e6 cells; logD at 4 h [6]: 2.8; hepatocyte CLint [7]: 73 µL/min/1e6 cells; EC50 (SU-DHL-1 [8]): 87 nM |
| C=CC(=O)N(c1ccc(O[C@@H]2CC[C@@H](NC(=O)NC3CCS(=O)(=O)C3)C2)cc1)[C@@H](C)c1ccc(Cl)cc1 (mixture of isomers) | 40 nM | 110 nM |  |
| C=C(Cl)C(=O)N(Cc1ccc(C(F)(F)F)cc1)c1ccc(O[C@@H]2CC[C@@H](N)C2)cc1 (racemic) | 1000 nM |  | half-life [9]: 1.42 h; hepatocyte CLint ([4]; hepatocytes): 52 µL/min/1e6 cells; logD at 4 h [6]: 2.4; microsomal CLint [10]: 7.8 µL/min/mg |
| C=CC(=O)N(c1ccc(O[C@@H]2CC[C@@H](N)C2)cc1)[C@@H](COC)c1ccc(Cl)cc1 |  | 450 nM | IC50 [2]: > 100000 nM |
| C=C(F)C(=O)N(Cc1ccc(C(F)(F)F)cc1)c1ccc(O[C@@H]2CC[C@@H](N)C2)cc1 (racemic) | > 7800 nM |  |  |
| C=CC(=O)N(c1ccc(O[C@@H]2CC[C@@H](N)C2)cc1)[C@H](c1ccc(Cl)cc1)c1cncnc1 | 33 nM | 120 nM |  |
| C=CC(=O)N(c1ccc(O[C@@H]2CC[C@@H](N)C2)cc1)[C@@H](C)c1ccc(Cl)cc1 |  | 1100 nM |  |
| C=CC(=O)N(c1ccc(O[C@@H]2CC[C@@H](N)C2)cc1)[C@@H](CCNS(C)(=O)=O)c1ccc(Cl)cc1 | 17 nM | 90 nM | EC50 (SU-DHL-1 [8]): 130 nM |
| CC#CC(=O)N(c1ccc(O[C@@H]2CC[C@@H](N)C2)cc1)[C@@H](C)c1ccc(Cl)cc1 | 300 nM |  |  |
| C=CC(=O)N(c1ccc(O[C@@H]2CC[C@@H](N)C2)cc1F)[C@@H](C)c1ccc(Cl)cc1 | 48 nM | 410 nM |  |
| C=C(C)C(=O)N(Cc1ccc(C(F)(F)F)cc1)c1ccc(O[C@@H]2CC[C@@H](N)C2)cc1 (racemic) | > 10000 nM |  |  |
| C=CC(=O)N(c1ccc(O[C@@H]2CC[C@@H](N)C2)c(F)c1)[C@@H](CC(C)(C)O)c1ccc(Cl)cc1 | 11 nM | 42 nM | hepatocyte CLint [3]: 5.9 µL/min/1e6 cells; hepatocyte CLint ([4]; rat hepatocytes, read-out: CLH): 7.3 µL/min/1e6 cells; logD at 4 h [6]: 1.5; hepatocyte CLint [7]: 15 µL/min/1e6 cells; EC50 (SU-DHL-1 [8]): 58 nM |
| C[C@@H](c1ccc(Cl)cc1)N(C(=O)/C=C/CN(C)C)c1ccc(O[C@@H]2CC[C@@H](NC(=O)NC3CS(=O)(=O)C3)C2)c(F)c1 | 10 nM | 110 nM | hepatocyte CLint [3]: 2.6 µL/min/1e6 cells; fraction unbound [11]: 0.085; IC50 [5]: > 30000 nM; IC50 (Bcl-2-like protein 1): > 30000 nM; Vdss [12]: 4.6 L/kg; logD at 4 h [6]: 2.7; half-life [13]: 2.7 h; hepatocyte CLint [7]: 23 µL/min/1e6 cells; Papp A→B at 2 h [14]: < 11 ×10⁻⁶ cm/s; EC50 (SU-DHL-1 [8]): 110 nM |
| CN1CCC[C@@H]1/C=C/C(=O)N(Cc1ccc(Cl)cc1)c1ccc(O[C@@H]2CC[C@@H](N)C2)cc1 | 240 nM |  |  |
| C=CC(=O)N(c1ccc(O[C@@H]2CC[C@@H](NC(=O)NCCN(C)C)C2)c(Cl)c1)[C@@H](C)c1ccc(Cl)cc1 | 4.5 nM | 28 nM | hepatocyte CLint [3]: 9.8 µL/min/1e6 cells; hepatocyte CLint ([4]; rat hepatocytes, read-out: CLH): 17 µL/min/1e6 cells; logD at 4 h [6]: 3.5; hepatocyte CLint [7]: 42 µL/min/1e6 cells; EC50 (SU-DHL-1 [8]): 72 nM |
| C=CC(=O)N(c1ccc(O[C@@H]2CC[C@@H](NC(=O)NCCN(C)C)C2)cc1)[C@@H](C)c1ccc(Cl)cc1 | 50 nM | 500 nM |  |

Source: ChEMBL document CHEMBL6074680, “Structure-Based Discovery of a Series of Covalent, Orally Bioavailable, and Selective BFL1 Inhibitors” (J Med Chem, 2024)
